Measured values reported in US20240366555A1, “SELECTIVE MTORC2 INHIBITOR AND USES THEREOF” (ALIAD BIOPHARMA, priority 2021, published 2024).

Columns and labels:
Pten KO mice [1] = test: Elevated plus maze test in Pten KO mice; assay type: in vivo; conditions: Pten KO mice administered athyriol; FIG. 2
Method: (§1) As Pten KO mice, Ptenf/f_cre/cre KO mice or Ptenf/f_cre/++ Het mice (KD) were obtained by mating Pten floxed/floxed mice and CAMKII-cre mice. DMSO or athyriol was intraperitoneally injected at 5 or 10 mg/kg for 2 weeks from the age of mice of 6 weeks, and a behavioral test was performed in 7 days after administration. Pten floxed/floxed mice were used as littermates of the same age as a normal control group.
In order to confirm whether emotional instability was improved, when athyriol was administered to an autism spectrum disorder animal model, Pten KO mice, an elevated plus maze test was performed. An anxiety disorder animal model behavioral test was evaluated as a tendency to avoid an open arm exposed to the elevated-plus maze and stay in a closed arm. Analysis was conducted with a video tracking system (Ethovision EPM program, Noldus information technology, Wageningen, Netherlands). In the elevated plus maze test measuring emotional instability disorder, when the emotional anxiety increases, the time spent in the closed arm increases compared to the time spent in the open arm.

Pten KO mice [2] = test: 3-chamber test in Pten KO mice; assay type: in vivo
Method: as §1
3-chamber test is a test to confirm sociability, social cognition, and social sexual preference, and it was tested by composing sessions 1 and 2. The experimental site was consisted of three chambers made of transparent acrylic walls with a small door and each chamber was length 50 cm×width 100 cm×height 50 cm. Through a cylindrical cage, the sense of smell and minimal contact of the test mice to the unfamiliar mouse were allowed. Prior to the test, the test mice were placed in an intermediate chamber and adapted for 5 minutes with both doors closed. The test was performed by dividing into sessions I and II. In the 3-chamber sociability measurement-1 session, an unfamiliar mouse met first was placed in a transparent box located at one end of the three rooms, and an empty transparent box of the same size was placed in the room located at the other side, and the target mouse was placed in the middle room, and then the time searching toward the counterpart within the social interaction zone was measured.
In the 3-chamber sociability measurement-2 session, an unfamiliar met first was placed in a transparent box located at one end of the three rooms, and the mouse met in the session 1 was placed in the same transparent box in the room located at the other side. […] Therefore, it could be confirmed that the sociability disorder occurring in the Pten KO mice was improved to the normal group level by athyriol administration.

mTORC2 signaling pathway = test: Immunoblot analysis of mTORC2 signaling pathway in A549 cells; assay type: cell-based, human
Method: In order to investigate the effect on the mTORC2 signaling pathway of norathyriol in a culture cell model, after treating norathyriol to a human cell line A549, Akt Ser473 phosphorylation, Akt Thr308 phosphorylation, and NDRG1 Thr346 phosphorylation were measured by immunoblot analysis over time. The A549 cells were cultured in RPMI culture medium in which 10% heat inactivated FBS and 1× GlutaMax were added. After seeding the A549 cells of 2×10^5 in a 60 mm culture dish and culturing them for 1 day, norathyriol was treated to the cells. The cells were washed with ice-cold 1× PBS twice, and then the cells were […] using RIPA buffer (50 mM Tris-HCl (pH7.4), 150 mM NaCl, 0.25% sodium deoxycholate, 1% NP-40, 1% SDS, 1 mM EDTA, 1 mM EGTA, 1 mM sodium β-glycerophosphate, 1 mM PMSF, 1 μg/ml leupeptin, 1 μg/ml pepstatin A, 10 nM aprotinin, 1 mM Na3VO4, 50 mM NaF, 10 nM calyculin A) on ice. After removing undissolved substances by centrifuging at 4° C. at 15,000× g for 15 minutes, the supernatant was recovered to determine the protein concentration with BCA protein assay kit (Thermo Fisher Scientific). 2× SDS-PAGE sample buffer in the same volume was added to the supernatant and boiled for 5 minutes, and then it was developed under a reducing condition by SDS-polyacrylamide gel electrophoresis. The developed protein was transferred into a PVDF membrane by an electro blotting method. The membrane was blocked in TBST containing 5% skim milk (100 mM Tris-Cl, pH 8.8, 150 mM NaCl, 0.1% Tween-20) at a room temperature for 1 hour, and then it was reacted with a primary antibody. After washing with TBST for 10 minutes 3 times, it was reacted with a secondary antibody conjugated with HRP. After washing with TBST for 10 minutes 3 times, it was reacted with an enhanced chemiluminescence (ECL) reagent to obtain an image of the protein combined with the secondary antibody. For the immunoblot analysis, AKT antibody (#4691, Cell Signaling), phospho-Ser473 AKT antibody (#4060, Cell Signaling), phospho-Thr308 AKT antibody (#2965, Cell Signaling), p70 S6 kinase antibody (#9202, Cell Signaling), and phospho-Thr389 p70 S6 kinase antibody (#9205, Cell Signaling) were used.
mTORC2 activates SGK1, and SGK1 phosphorylates NDRG1 Thr346. NDRG1 phosphorylated at Thr346 is removed by a ubiquitination-proteasome system. Accordingly, when the mTORC2 activity is inhibited, NDRG1 Thr346 phosphorylation is reduced, whereas NDRG1 protein increases.

[3] = system: mTORC2 signaling (FHRE dependent gene expression); test: FHRE-luciferase reporter analysis in A549; assay type: cell-based, human; conditions: A549 cells, treated for 24 hours; FIG. 7d
Description: mTORC2 activates SGK3, and SGK3 phosphorylates Fox03a, allowing Fox03a to remain in the cytoplasm. When mTORC2 is inhibited, Fox03a is dephosphorylated and translocated to the nucleus, and in the nucleus, it binds to FHRE located in a gene promoter to induce gene expression. Therefore, the change in the intracellular location of Fox03a and FHRE dependent gene expression become indicators for evaluating mTORC2 activity. In order to evaluate the effect of norathyriol on the mTORC2 activity, norathyriol was treated to A549, and then expression of an FHRE-synthetic luciferase gene was investigated by luciferase reporter analysis.
Specifically, A549 cells of 2×10^5 were seeded in a 35 mm culture dish and cultured for 1 day, and then a 2.5 μg FHRE-Luc plasmid and a 0.1 μg renilla luciferase plasmid were introduced by a transfection method using Lipofectamine LTX reagent (Thermofisher). After 18 hours, norathyriol was treated for 24 hours. Luciferase assay was performed with Dual Luciferase Reporter Assay System (Promega) according to the manufacturer's instructions.

SMILES	reduction of time spent in the closed arm (Pten KO mice [1])	time in the center zone (Pten KO mice [1])	increase of time of searching the unfamiliar mouse over normal control group, session 2 (Pten KO mice [2]; 10 mg/kg, session 2)	time searching the unfamiliar mouse, session 1 (Pten KO mice [2]; 3-chamber sociability measurement-1 session, FIG. 4)	time of searching the unfamiliar mouse, session 2 (Pten KO mice [2]; 5 or 10 mg/kg, 3-chamber sociability measurement-2 session)	Akt Ser473 phosphorylation (mTORC2 activity indicator) (mTORC2 signaling pathway; FIG. 7a)	Akt Thr308 phosphorylation (PDK1 activity indicator) (mTORC2 signaling pathway; FIG. 7a)	NDRG1 protein (mTORC2 signaling pathway; FIG. 7b)	ratio of NDRG1 Thr346 phosphorylation to NDRG1 protein (mTORC2 signaling pathway; FIG. 7b)	expression of the FHRE-synthetic luciferase gene [3]
COc1cc(O)c2c(=O)c3cc(O)c(O)cc3oc2c1 [athyriol, 1,6,7-Trihydroxy-3-methoxy-9H-xanthen-9-on]	15%	recovered to the normal control group level	14%	recovered to the normal control group level in a concentration-dependent manner	increased in a dose-dependent manner	–	–	–	–	–
O=c1c2cc(O)c(O)cc2oc2cc(O)cc(O)c12 [norathyriol, 1,3,6,7-tetrahydroxy-9H-xanthen-9-one]	–	–	–	–	–	reduced	not reduced and rather increased after 24 hours	increased significantly	reduced	increased by twice or more
